≈ marks a conversion by molar mass, not a printed value.
Tests used:
Assay in all cases: In vitro antibacterial evaluation: minimum inhibitory concentration (MIC), broth dilution method
Assay type in all cases: cell-based
Enterococcus sp. = settings: 18 hours at 35° C.
In short: (§1)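 NCCLS M7-A2 broth dilution with Mueller-Hinton II, testing 64-0.06 μg/mL antibiotic against 5×10^5 CFU/mL inocula. Test strains include recent methicillin-, penicillin- or vancomycin-resistant clinical isolates. MIC is the lowest concentration preventing growth.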

Staphylococcus sp. = system: Staphylococcus sp.
In short: as §1

Escherichia coli = settings: 18 hours at 35° C.
In short: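 MIC read as lowest drug level preventing visible growth. Organisms at 5×10^5 CFU/mL were exposed to a 64-0.06 μg/mL dilution series in Muller-Hinton II […] following NCCLS broth dilution standard M7-A2.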

Streptococcus sp. = settings: 18 hours at 35° C.
In short: as §1

[1] = broth dilution, inoculum 5×10^5 CFU/mL

CC(c1ccccc1)C1NC(=O)CNC(=O)C(CO)NC(=O)C(C(O)C2CNC(=N)N2C2OC(CO)C(O)C(O)C2O)NC(=O)C(C(O)C2CNC(=N)N2)NC(=O)C(Cc2ccc(OC3OC(CO)C(OC4OC5COC6(OC5C(O)C4O)C(C)CCCC6C)C(O)C3O)cc2)NC1=O (stereo not drawn) [Example 206, Cyclo[glycyl-β-methylphenylalanyl-O-[4-O-[4,6-O-(2,6-dimethylcyclohexylidene)hexopyranosyl]hexopyranosyl]tyrosyl-3-(2-iminoimidazolidin-4-yl)seryl-3-(3-hexopyranosyl-2-iminoimidazolidin-4-yl)serylseryl]]
MIC Enterococcus avium (GC 4558) (Enterococcus sp.; Enterococcus avium (GC 4558)): 2 µg/mL (≈ 1.43 µM)
MIC Enterococcus faecalis (ATCC 29212) (Enterococcus sp.; Enterococcus faecalis (ATCC 29212)): 1 µg/mL (≈ 0.713 µM)
MIC Enterococcus faecalis (GC 2242) (Enterococcus sp.; Enterococcus faecalis (GC 2242)): 2 µg/mL (≈ 1.43 µM)
MIC Enterococcus faecalis (GC 2691) (Enterococcus sp.; Enterococcus faecalis (GC 2691)): 2 µg/mL (≈ 1.43 µM)
MIC Enterococcus faecalis (GC 3059) (Enterococcus sp.; Enterococcus faecalis (GC 3059)): 1 µg/mL (≈ 0.713 µM)
MIC Enterococcus faecalis (GC 4552) (Enterococcus sp.; Enterococcus faecalis (GC 4552)): 2 µg/mL (≈ 1.43 µM)
MIC Enterococcus faecalis (GC 4553) (Enterococcus sp.; Enterococcus faecalis (GC 4553)): 2 µg/mL (≈ 1.43 µM)
MIC Enterococcus faecalis (GC 4554) (Enterococcus sp.; Enterococcus faecalis (GC 4554)): 2 µg/mL (≈ 1.43 µM)
MIC Enterococcus faecalis (GC 6189) (Enterococcus sp.; Enterococcus faecalis (GC 6189)): 1 µg/mL (≈ 0.713 µM)
MIC Enterococcus faecium (GC 2243) (Enterococcus sp.; Enterococcus faecium (GC 2243)): 2 µg/mL (≈ 1.43 µM)
MIC Enterococcus faecium (GC 4556) (Enterococcus sp.; Enterococcus faecium (GC 4556)): 1 µg/mL (≈ 0.713 µM)
MIC Enterococcus faecium (GC 4557) (Enterococcus sp.; Enterococcus faecium (GC 4557)): 2 µg/mL (≈ 1.43 µM)
MIC Enterococcus avium (GC 4558) (Enterococcus sp.; [1]): 2 µg/mL (≈ 1.43 µM)
MIC Enterococcus faecalis (ATCC 29212) (Enterococcus sp.; [1]): 1 µg/mL (≈ 0.713 µM)
MIC Enterococcus faecalis (GC 2242) (Enterococcus sp.; [1]): 2 µg/mL (≈ 1.43 µM)
MIC Enterococcus faecalis (GC 2691) (Enterococcus sp.; [1]): 2 µg/mL (≈ 1.43 µM)
MIC Enterococcus faecalis (GC 3059) (Enterococcus sp.; [1]): 1 µg/mL (≈ 0.713 µM)
MIC Enterococcus faecalis (GC 4552) (Enterococcus sp.; [1]): 2 µg/mL (≈ 1.43 µM)
MIC Enterococcus faecalis (GC 4553) (Enterococcus sp.; [1]): 2 µg/mL (≈ 1.43 µM)
MIC Enterococcus faecalis (GC 4554) (Enterococcus sp.; [1]): 2 µg/mL (≈ 1.43 µM)
MIC Enterococcus faecalis (GC 6189) (Enterococcus sp.; [1]): 1 µg/mL (≈ 0.713 µM)
MIC Enterococcus faecium (GC 2243) (Enterococcus sp.; [1]): 2 µg/mL (≈ 1.43 µM)
MIC Enterococcus faecium (GC 4556) (Enterococcus sp.; [1]): 1 µg/mL (≈ 0.713 µM)
MIC Enterococcus faecium (GC 4557) (Enterococcus sp.; [1]): 2 µg/mL (≈ 1.43 µM)
MIC Staphylococcus aureus (ATCC 29213) (Staphylococcus sp.; strain ATCC 29213): 1 µg/mL (≈ 0.713 µM)
MIC Staphylococcus aureus (GC 1131) (Staphylococcus sp.; strain GC 1131): 1 µg/mL (≈ 0.713 µM)
MIC Staphylococcus aureus (GC 3051) (Staphylococcus sp.; strain GC 3051): 1 µg/mL (≈ 0.713 µM)
MIC Staphylococcus aureus (GC 3053) (Staphylococcus sp.; strain GC 3053): 1 µg/mL (≈ 0.713 µM)
MIC Staphylococcus aureus (GC 4541) (Staphylococcus sp.; strain GC 4541): 1 µg/mL (≈ 0.713 µM)
MIC Staphylococcus aureus (GC 4542) (Staphylococcus sp.; strain GC 4542): 1 µg/mL (≈ 0.713 µM)
MIC Staphylococcus aureus-SMITH (GC 4543) (Staphylococcus sp.; strain GC 4543): 1 µg/mL (≈ 0.713 µM)
MIC Staphylococcus aureus (GC 4544) (Staphylococcus sp.; strain GC 4544): 1 µg/mL (≈ 0.713 µM)
MIC Staphylococcus aureus (GC 4545) (Staphylococcus sp.; strain GC 4545): 1 µg/mL (≈ 0.713 µM)
MIC Staphylococcus haemolyticus (GC 4546) (Staphylococcus sp.; strain GC 4546): 0.5 µg/mL (≈ 0.356 µM)
MIC Coagulase Negative Staphylococcus (GC 4547) (Staphylococcus sp.; strain GC 4547): 1 µg/mL (≈ 0.713 µM)
MIC Coagulase Negative Staphylococcus (GC 4548) (Staphylococcus sp.; strain GC 4548): 0.5 µg/mL (≈ 0.356 µM)
MIC Coagulase Negative Staphylococcus (GC 4549) (Staphylococcus sp.; strain GC 4549): 0.5 µg/mL (≈ 0.356 µM)
MIC Coagulase Negative Staphylococcus (GC 4551) (Staphylococcus sp.; strain GC 4551): 1 µg/mL (≈ 0.713 µM)
MIC Escherichia coli (ATCC 25922) (Escherichia coli; Escherichia coli (ATCC 25922)): 32 µg/mL (≈ 22.8 µM)
MIC Escherichia coli (GC 4559) (Escherichia coli; Escherichia coli (GC 4559)): 32 µg/mL (≈ 22.8 µM)
MIC Escherichia coli (GC 4560) (Escherichia coli; Escherichia coli (GC 4560)): 1 µg/mL (≈ 0.713 µM)
MIC Streptococcus agalactiae (GC 4564) (Streptococcus sp.; Streptococcus agalactiae (GC 4564)): 0.25 µg/mL (≈ 0.178 µM)
MIC Streptococcus pneumoniae (ATCC 6301) (Streptococcus sp.; Streptococcus pneumoniae (ATCC 6301)): <0.12 µg/mL
MIC Streptococcus pneumoniae (GC 1894) (Streptococcus sp.; Streptococcus pneumoniae (GC 1894)): <0.12 µg/mL
MIC Streptococcus pneumoniae (GC 4565) (Streptococcus sp.; Streptococcus pneumoniae (GC 4565)): <0.12 µg/mL
MIC Streptococcus pyogenes (GC 4563) (Streptococcus sp.; Streptococcus pyogenes (GC 4563)): 1 µg/mL (≈ 0.713 µM)
MIC Streptococcus agalactiae (GC 4564) (Streptococcus sp.; [1]): 0.25 µg/mL (≈ 0.178 µM)
MIC Streptococcus pneumoniae (ATCC 6301) (Streptococcus sp.; [1]): <0.12 µg/mL
MIC Streptococcus pneumoniae (GC 1894) (Streptococcus sp.; [1]): <0.12 µg/mL
MIC Streptococcus pneumoniae (GC 4565) (Streptococcus sp.; [1]): <0.12 µg/mL
MIC Streptococcus pyogenes (GC 4563) (Streptococcus sp.; [1]): 1 µg/mL (≈ 0.713 µM)

Source: patent US8247211B2, “Glycopeptide antibiotics” (American Cyanamid Company, priority 2001, dated 2012)
